In patent US9598359B2, “Sulfonates from natural oil metathesis” (priority 2010, dated 2017):
Like-named read-outs stand apart in the source and are kept apart here.

Key:
[1] = format: physicochemical; parameters: key to Spont. (spontaneity or bloom): E (excellent); G (good); F (fair); P (poor); conditions: for % Separation, 1 h / % Separation, 24 h: C = cream; for % Separation, 24 h, oil: O = oil separated, Tr = trace of oil

SMILES | Spont. (spontaneity or bloom) ([1]; 34 ppm water) | % Separation, 1 h ([1]; 34 ppm water) [%] | % Separation, 24 h ([1]; 34 ppm water) | % Separation, 24 h, oil ([1]; 34 ppm water) | Spont. (spontaneity or bloom) ([1]; 1000 ppm water) | % Separation, 1 h ([1]; 1000 ppm water) [%] | % Separation, 24 h ([1]; 1000 ppm water) | % Separation, 24 h, oil ([1]; 1000 ppm water) | Emulsion stability, mL separation, 1 h (Adjuvant (anionic/nonionic) test sample) [mL] | Emulsion stability, mL separation, 24 h (Adjuvant (anionic/nonionic) test sample, Tr = trace) | Emulsion stability, mL separation, 1 h (Anionic test sample) [mL] | Emulsion stability, mL separation, 24 h (Anionic test sample) [mL] | sol (solubility) (Anionic test sample, 342 ppm water, 30° C.) | Emulsion stability, mL separation, 1 h (Nonionic test sample) [mL] | Emulsion stability, mL separation, 24 h (Nonionic test sample) [mL]
CCCCCCCCCC(=O)OC(CCCCCCCC(=O)OC)C(CCCCCCCC(=O)OC)S(=O)(=O)[O-].[Na+] (centres unmarked) [C18-64, DBE C10 FA (75:25) SLA] | F− | 3.2 | 2.5 C, % | 1 O % | F− | 3.7 | 3 C, % | 1 O % |  |  |  |  |  |  | 
CCCCCCCCCCCCCCCCCC(=O)OC(CCCCCCCC(=O)[O-])C(CC)S(=O)(=O)[O-].[Na+].[Na+] (centres unmarked) [C12-36, C12 UFA C18 FA (80:20) SLA] | F | 3.8 | 4.5 C, % | Tr | F | 3.6 | 4 C, % | Tr |  |  |  |  |  |  | 
CCCCCCCCCC(=O)OC(CCCCCCCC(=O)OC)CS(=O)(=O)[O-].[Na+] (centres unmarked) [C10-35, C10 UME C10 FA (60:40) SLA] | F | 3 | 3% |  | F | 3.4 | 4% |  |  |  |  |  |  |  | 
C=CCCCCCCCC(=O)OC(CCCCCCCC(=O)[O-])CS(=O)(=O)[O-].[Na+].[Na+] (centres unmarked) [C10-32, C10 UFA SLA] | F | 3 | 3.9% |  | F | 2.5 | 3% |  | 0 | Tr | 0 | 0 | S | 1 | 1
CCCCCCCCCC(=O)OC(CCCCCCCC(=O)OC)C(CCCCCCCC(=O)OC)S(=O)(=O)[O-].[Na+] (centres unmarked) [C18-63, DBE C10 FA (60:40) SLA] | F | 3.1 | 3 C, % | 1 O % | F | 3 | 2.5 C, % | 1 O % |  |  |  |  |  |  | 
CCCCCCCCCCCC(=O)OC(CCCCCCCC(=O)OC)C(CC)S(=O)(=O)[O-].[Na+] (centres unmarked) [C12-37, C12 UME C12 FA (60:40) SLA] | F | 3 | 4 C, % | <1 O % | F | 3 | 3 C, % | 1 O % |  |  |  |  |  |  | 
CCCCCCCCCCCC(=O)OC(CCCCCCCC(=O)[O-])C(CC)S(=O)(=O)[O-].[Na+].[Na+] (centres unmarked) [C12-35, C12 UFA C12 FA (80:20) SLA] | F | 3.8 | 5 C, % | Tr | F | 3 | 4 C, % | Tr |  |  |  |  |  |  | 
